According to ChEMBL document CHEMBL1201862, “PubChem BioAssay data set” (2004):
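48-hour exposure; five concentrations; linearly interpolated endpoints. At the GI50, growth is halved.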 Calls of active or inactive are those of the source. Rule as the data show it: active = GI50 up to about 1.1 µM and inactive = higher.

Tests used:
Experiment in all cases: DTP human tumour cell line panel, 48 h
HOP-62 = system: HOP-62
KM12 = system: KM12
HT-29 = system: HT-29
UO-31 = system: UO-31
MOLT-4 = system: MOLT-4
UACC-62 = system: UACC-62
NCI/ADR-RES = system: NCI/ADR-RES
COLO 205 = system: COLO 205
OVCAR-8 = system: OVCAR-8
HCT-15 = system: HCT-15
CAKI-1 = system: CAKI-1
K562 = system: K562
SF-268 = system: SF-268
SN12C = system: SN12C
NCI-H460 = system: NCI-H460
HL-60 = system: HL-60
SR = system: SR
Hs-578T = system: Hs-578T
MCF7 = system: MCF7
786-0 = system: 786-0
CCRF-CEM = system: CCRF-CEM
UACC-257 = system: UACC-257
SK-MEL-28 = system: SK-MEL-28
MDA-N = system: MDA-N
OVCAR-4 = system: OVCAR-4
SK-OV-3 = system: SK-OV-3
A549 = system: A549
IGROV-1 = system: IGROV-1
RPMI-8226 = system: RPMI-8226
SF-539 = system: SF-539
SW-620 = system: SW-620
SNB-75 = system: SNB-75
HOP-92 = system: HOP-92
BT-549 = system: BT-549
U-251 = system: U-251
T47D = system: T47D
LOX IMVI = system: LOX IMVI
SK-MEL-5 = system: SK-MEL-5
A498 = system: A498
Malme-3M = system: Malme-3M
DU-145 = system: DU-145
MDA-MB-231 = system: MDA-MB-231
HCC 2998 = system: HCC 2998
M14 = system: M14
NCI-H23 = system: NCI-H23
EKVX = system: EKVX
TK-10 = system: TK-10
PC-3 = system: PC-3
MDA-MB-435 = system: MDA-MB-435
RXF 393 = system: RXF 393
ACHN = system: ACHN
OVCAR-3 = system: OVCAR-3
OVCAR-5 = system: OVCAR-5
SK-MEL-2 = system: SK-MEL-2
SF-295 = system: SF-295
NCI-H522 = system: NCI-H522
NCI-H226 = system: NCI-H226
SNB-19 = system: SNB-19

Structure (SMILES): Cc1ccc(Nc2nc(NNC(=O)Cc3ccccc3)nc(NNC(=O)c3ccncc3)n2)cc1
- GI50 (HOP-62): > 10 µM (inactive)
- GI50 (KM12): > 10 µM (inactive)
- GI50 (HT-29): > 10 µM (inactive)
- GI50 (UO-31): 8.49 µM (inactive)
- GI50 (MOLT-4): > 10 µM (inactive)
- GI50 (UACC-62): 9.82 µM (inactive)
- GI50 (NCI/ADR-RES): > 10 µM (inactive)
- GI50 (COLO 205): > 10 µM (inactive)
- GI50 (OVCAR-8): > 10 µM (inactive)
- GI50 (HCT-15): > 10 µM
- GI50 (CAKI-1): > 10 µM (inactive)
- GI50 (K562): > 10 µM (inactive)
- GI50 (SF-268): > 10 µM (inactive)
- GI50 (SN12C): > 10 µM (inactive)
- GI50 (NCI-H460): > 10 µM (inactive)
- GI50 (HL-60): > 10 µM (inactive)
- GI50 (SR): > 10 µM (inactive)
- GI50 (Hs-578T): > 10 µM (inactive)
- GI50 (MCF7): > 10 µM (inactive)
- GI50 (786-0): > 10 µM (inactive)
- GI50 (CCRF-CEM): > 10 µM (inactive)
- GI50 (UACC-257): > 10 µM (inactive)
- GI50 (SK-MEL-28): > 10 µM (inactive)
- GI50 (MDA-N): > 10 µM (inactive)
- GI50 (OVCAR-4): > 10 µM (inactive)
- GI50 (SK-OV-3): > 10 µM (inactive)
- GI50 (A549): > 10 µM (inactive)
- GI50 (IGROV-1): > 10 µM (inactive)
- GI50 (RPMI-8226): > 10 µM (inactive)
- GI50 (SF-539): > 10 µM (inactive)
- GI50 (SW-620): > 10 µM (inactive)
- GI50 (SNB-75): > 10 µM (inactive)
- GI50 (HOP-92): > 10 µM (inactive)
- GI50 (BT-549): > 10 µM (inactive)
- GI50 (U-251): > 10 µM (inactive)
- GI50 (T47D): > 10 µM (inactive)
- GI50 (LOX IMVI): > 10 µM (inactive)
- GI50 (SK-MEL-5): > 10 µM (inactive)
- GI50 (A498): > 10 µM (inactive)
- GI50 (Malme-3M): > 10 µM (inactive)
- GI50 (DU-145): > 10 µM (inactive)
- GI50 (MDA-MB-231): > 10 µM (inactive)
- GI50 (HCC 2998): > 10 µM (inactive)
- GI50 (M14): > 10 µM (inactive)
- GI50 (NCI-H23): > 10 µM (inactive)
- GI50 (EKVX): > 10 µM (inactive)
- GI50 (TK-10): > 10 µM (inactive)

Structure (SMILES): O=C(O)C1NCCc2c1[nH]c1ccccc21 (stereo not given)
- GI50 (PC-3): > 10 µM (inactive)
- GI50 (HOP-62): > 10 µM (inactive)
- GI50 (MDA-MB-435): > 10 µM (inactive)
- GI50 (NCI/ADR-RES): > 10 µM (inactive)
- GI50 (Hs-578T): > 10 µM (inactive)
- GI50 (MCF7): > 10 µM (inactive)
- GI50 (MDA-N): > 10 µM (inactive)
- GI50 (RPMI-8226): > 10 µM (inactive)
- GI50 (BT-549): > 10 µM (inactive)
- GI50 (T47D): > 10 µM (inactive)
- GI50 (DU-145): > 10 µM (inactive)
- GI50 (MDA-MB-231): > 10 µM (inactive)
- GI50 (RXF 393): > 10 µM (inactive)

Structure (SMILES): CN1CCN(C(=S)N(C(=O)c2cccs2)c2ccccc2)CC1
- GI50 (KM12): > 100 µM (inactive)
- GI50 (HT-29): > 100 µM (inactive)
- GI50 (UO-31): > 100 µM (inactive)
- GI50 (MOLT-4): > 100 µM (inactive)
- GI50 (MDA-MB-435): > 100 µM (inactive)
- GI50 (UACC-62): > 100 µM (inactive)
- GI50 (COLO 205): > 100 µM (inactive)
- GI50 (ACHN): > 100 µM (inactive)
- GI50 (OVCAR-8): > 100 µM (inactive)
- GI50 (HCT-15): > 100 µM
- GI50 (K562): > 100 µM (inactive)
- GI50 (OVCAR-3): > 100 µM (inactive)
- GI50 (SF-268): > 100 µM (inactive)
- GI50 (SN12C): > 100 µM (inactive)
- GI50 (NCI-H460): > 100 µM (inactive)
- GI50 (HL-60): > 100 µM (inactive)
- GI50 (SR): > 100 µM (inactive)
- GI50 (OVCAR-5): 94.6 µM (inactive)
- GI50 (Hs-578T): > 100 µM (inactive)
- GI50 (MCF7): > 100 µM (inactive)
- GI50 (SK-MEL-2): > 100 µM (inactive)
- GI50 (SF-295): > 10 µM (inactive)
- GI50 (786-0): > 100 µM (inactive)
- GI50 (NCI-H522): > 100 µM (inactive)
- GI50 (CCRF-CEM): > 100 µM (inactive)
- GI50 (UACC-257): > 100 µM (inactive)
- GI50 (SK-MEL-28): > 100 µM (inactive)
- GI50 (MDA-N): > 100 µM (inactive)
- GI50 (OVCAR-4): > 100 µM (inactive)
- GI50 (NCI-H226): > 100 µM (inactive)
- GI50 (A549): > 100 µM (inactive)
- GI50 (IGROV-1): > 100 µM (inactive)
- GI50 (RPMI-8226): > 100 µM (inactive)
- GI50 (SW-620): > 100 µM (inactive)
- GI50 (SNB-75): 56 µM (inactive)
- GI50 (HOP-92): > 100 µM (inactive)
- GI50 (BT-549): > 100 µM (inactive)
- GI50 (U-251): > 100 µM (inactive)
- GI50 (SNB-19): > 100 µM (inactive)
- GI50 (T47D): > 100 µM (inactive)
- GI50 (LOX IMVI): > 100 µM (inactive)
- GI50 (SK-MEL-5): > 100 µM (inactive)
- GI50 (Malme-3M): > 100 µM (inactive)
- GI50 (DU-145): > 100 µM (inactive)
- GI50 (MDA-MB-231): > 100 µM (inactive)
- GI50 (HCC 2998): > 100 µM (inactive)
- GI50 (M14): > 100 µM (inactive)
- GI50 (NCI-H23): > 100 µM (inactive)
- GI50 (TK-10): > 100 µM (inactive)
- GI50 (RXF 393): > 100 µM (inactive)
